Source: US11471460B2, “Autophagy modulators for use in treating cancer” (The United States of America,as represented by the …, priority 2017, dated 2022)
pEC50, pKd: −log10 of the molar value. Entries after “also recorded” stand apart in the source; their conditions may differ.

What was measured:
U2OS cells = test: Size of LAMP1-RFP-labeled vacuoles (lysosomes), confocal microscopy; assay type: cell-based, human
Experimental: LAMP1 protein is a lysosomal membrane marker. Nuclei were stained with DAPI. Therefore, the enlarged cytoplasmic vacuoles induced by compounds from this invention are lysosomes.
The selection of circular, enlarged, lysosomes was carried out using a size mask of 0.5 to 5.0 μm^2. Punctate lysosomes were selected with a size mask of 0.1 to 1.5 μm^2. Thresholds were the same for all images. Clustered lysosomes were not included in the size analysis. The mean area (μm^2)±SEM was plotted (O). From 235 to 545 lysosomes were measured for each time point. The number of lysosomes per μm^2 (E) was determined at the beginning and end of this experiment and plotted on a separate Y-axis.

embryonic kidney cells = test: Viability of embryonic kidney cells; assay type: cell-based; conditions: Homo sapiens; embryonic kidney cells; read-out: EC50
Experimental: FIG. 18 summarizes results from 13 human cell lines. All cells were seeded at the same cell density in a rich culture medium and assayed under identical conditions. Compound 1 efficacy is the ratio of cell viability with compound 1 to cell viability with chloroquine derivatives.
Cells were obtained from the American Type Culture Collection. BORCS5-KO HeLa cells have been described previously. Osteosarcoma U2OS were routinely seeded in 6-well plates (0.5×10^5 cells/well) and cultured in Dulbecco's Modified Eagle's medium supplemented with L-Glutamine, 4.5 g/L Glucose, Sodium Pyruvate, Phenol Red, and either heat-inactivated or normal 10% fetal calf serum at 37° C. in 5% CO2. Approximately 15-19 hours later, the indicated compound was added in 1:1000 dilutions. […] Melanoma A375, embryonic kidney 293T and human foreskin fibroblast Hs27 cells were cultured in the same medium, except that cells were seeded into 12-well plates at 10^3 cells/well.

PIKFYVE = biological target: T1, PIKFYVE (Homo sapiens, UniProt Q9Y2I7); test: DiscoverX KINOMEscan dissociation constant; assay type: binding
T1 construct: purchased DiscoverX (KINOMEscan service, San Diego, Calif.)
T1 sequence (Q9Y2I7 whole entry): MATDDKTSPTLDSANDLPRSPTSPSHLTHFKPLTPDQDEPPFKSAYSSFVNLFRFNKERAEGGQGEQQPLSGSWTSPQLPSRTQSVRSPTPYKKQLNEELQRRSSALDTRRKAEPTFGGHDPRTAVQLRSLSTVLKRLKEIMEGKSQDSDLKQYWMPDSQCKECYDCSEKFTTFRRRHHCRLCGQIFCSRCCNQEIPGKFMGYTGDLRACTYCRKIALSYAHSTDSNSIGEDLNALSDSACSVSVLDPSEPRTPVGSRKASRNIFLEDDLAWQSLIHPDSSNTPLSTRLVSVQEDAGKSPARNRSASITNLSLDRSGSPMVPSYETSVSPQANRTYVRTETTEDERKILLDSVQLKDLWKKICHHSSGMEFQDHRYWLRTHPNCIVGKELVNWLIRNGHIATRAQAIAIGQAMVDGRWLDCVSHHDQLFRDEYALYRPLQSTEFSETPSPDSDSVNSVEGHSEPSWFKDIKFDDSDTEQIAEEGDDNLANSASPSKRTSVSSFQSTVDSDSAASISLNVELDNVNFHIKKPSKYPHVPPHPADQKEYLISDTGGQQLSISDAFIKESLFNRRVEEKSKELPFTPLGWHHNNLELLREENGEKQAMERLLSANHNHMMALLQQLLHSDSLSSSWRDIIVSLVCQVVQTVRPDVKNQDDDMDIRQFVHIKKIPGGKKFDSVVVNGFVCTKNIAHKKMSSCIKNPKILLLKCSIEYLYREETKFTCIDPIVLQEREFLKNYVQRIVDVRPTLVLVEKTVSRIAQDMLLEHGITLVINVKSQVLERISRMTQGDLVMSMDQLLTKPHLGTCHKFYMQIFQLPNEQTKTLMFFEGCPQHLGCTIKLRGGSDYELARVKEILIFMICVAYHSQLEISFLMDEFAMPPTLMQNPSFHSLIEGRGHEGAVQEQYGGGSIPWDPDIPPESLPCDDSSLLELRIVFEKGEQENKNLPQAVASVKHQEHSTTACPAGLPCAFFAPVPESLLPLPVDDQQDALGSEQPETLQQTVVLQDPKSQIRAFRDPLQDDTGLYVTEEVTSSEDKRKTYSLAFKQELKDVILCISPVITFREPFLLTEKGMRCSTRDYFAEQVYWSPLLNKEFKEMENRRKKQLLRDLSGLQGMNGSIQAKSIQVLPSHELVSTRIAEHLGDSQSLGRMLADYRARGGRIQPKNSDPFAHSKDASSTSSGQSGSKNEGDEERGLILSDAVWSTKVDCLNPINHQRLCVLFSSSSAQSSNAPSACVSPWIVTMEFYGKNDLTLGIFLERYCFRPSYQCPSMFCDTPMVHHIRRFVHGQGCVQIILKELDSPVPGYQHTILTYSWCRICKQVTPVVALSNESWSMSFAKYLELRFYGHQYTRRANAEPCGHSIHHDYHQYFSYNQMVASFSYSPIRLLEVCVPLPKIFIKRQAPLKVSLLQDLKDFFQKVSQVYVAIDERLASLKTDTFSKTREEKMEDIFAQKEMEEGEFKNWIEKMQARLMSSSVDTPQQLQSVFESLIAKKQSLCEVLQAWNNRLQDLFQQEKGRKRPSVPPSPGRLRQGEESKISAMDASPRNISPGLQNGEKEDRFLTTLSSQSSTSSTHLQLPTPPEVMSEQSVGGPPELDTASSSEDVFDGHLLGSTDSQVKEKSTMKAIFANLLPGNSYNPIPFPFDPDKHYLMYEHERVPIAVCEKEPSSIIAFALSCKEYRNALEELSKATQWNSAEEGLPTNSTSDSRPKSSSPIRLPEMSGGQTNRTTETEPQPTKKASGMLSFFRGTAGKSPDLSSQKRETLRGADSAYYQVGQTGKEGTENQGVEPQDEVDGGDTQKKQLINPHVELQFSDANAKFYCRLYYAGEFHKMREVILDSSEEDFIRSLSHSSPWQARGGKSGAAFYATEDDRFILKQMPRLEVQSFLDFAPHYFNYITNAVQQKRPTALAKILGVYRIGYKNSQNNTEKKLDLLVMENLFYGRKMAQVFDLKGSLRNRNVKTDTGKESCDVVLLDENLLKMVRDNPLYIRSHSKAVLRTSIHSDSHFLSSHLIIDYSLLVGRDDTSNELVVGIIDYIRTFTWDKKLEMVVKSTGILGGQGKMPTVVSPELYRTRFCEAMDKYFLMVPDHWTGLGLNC
Experimental: (§1) Each kinase was tagged with a unique DNA sequence that allowed the amount of protein bound to the solid support to be quantified by PCR. The top three targets for compound 1 were PIKFYVE, PIP4K2C and MTOR. […] Dissociation constants (Kd) were determined from the amount of kinase captured on the solid support as a function of the test compound concentration (nM) on a log10 scale. Mean Kd values (±range) are given for each compound. The ratio of PIP4K2C to PIKFYVE indicates the relative specificity for these two kinases.
(§2) To address this hypothesis, a panel of 468 human kinases were screened for their ability to bind compound 1. […] The top two candidates were PIKFYVE (phosphoinositide kinase FYVE-type zinc finger containing) and PIP4K2C (phosphatidylinositol-5-phosphate 4-kinase). PIKFYVE is a kinase that is essential for mouse development (49) and that prevents endosome enlargement and cytoplasmic vacuolization (50, 51). PIP4K2C is a kinase that is not essential for mouse growth and viability, but it is essential for the immune system (52), mTORC1 signaling (53), and regulation of autophagy (54). The third candidate was MTOR, a kinase that regulates autophagy (55). Therefore, the binding constants (Kd) for all five members of the compound 1-family were determined for each of these three proteins from two independent titration curves, as shown for compound 1.

melanoma A375 cells [1] = test: Tumor formation by pretreated A375 cells in nude mice; assay type: in vivo
Excerpt: Viability was quantified by trypan blue dye exclusion method. The images confirmed the presence of cytoplasmic vacuolization occurred only in the compound 1 treated cells. […] The left flank received cells pretreated with vehicle and the right flank received cells pretreated with compound 1. At 27 days later, mice were photographed, and tumors excised. […] Error bars indicate the SEM for 5 tumors.
To determine whether or not compound 1 could inhibit progression of a tumor that arose from autophagy-dependent cancer cells, melanoma A375 cells were pretreated with either vehicle or compound 1 and then assayed for their ability to produce a tumor. Pretreatment consisted of culturing A375 cells for 8 hours with 10 μM compound 1. The cells were then recovered by trypsinization and their viability confirmed by trypan blue exclusion. […] The cells were then inoculated subcutaneously into the flanks of immuno-compromised mice.

[2] = system: LC3-II and p62 in U2OS cells; test: Accumulation of autophagosome markers LC3-II and p62, Western immuno-blotting; assay type: cell-based, human
Experimental: Cells were cultured for 4 hrs before total cell extracts were subjected to Western immuno-blotting for LC3, p62 and β-actin. Blot was developed with film. […] (C) U2OS cells were cultured for the times indicated in the presence of 1.2 μM compound 1 to produce 80% of the maximum observed in FIG. 10A. Total cell extracts were assayed at the times indicated. […] All blots were stained with Ponceau S […].
Total cell lysates were prepared (in 4× dye). Proteins were fractionated at 200V in a NuPAGE 4-12% bis-tris polyacrylamide gel (NP0323, Novex) using NuPAGE MES running buffer (NP0002, Novex) and then stained with PageBlue (24260, Thermo Scientific) in order to quantify the relative amount of histones in each sample. […] Proteins were wet-transferred onto nitrocellulose membranes (162-0112, Bio-Rad) using NuPAGE transfer buffer (NP-0006-1, Novex) for 1 hour at 30V. Membranes were then stained with dilute Ponceau S solution, blocked in 5% milk for 30 minutes at room temperature, and incubated overnight at 4° C. in primary antibody. Membranes were washed with phosphate buffered saline with tween 20 (PBST) three times for 10 min. each, incubated with secondary antibodies in 5% milk for 1 hour, washed three times with PBST again, covered in ECL (SuperSignal West Pico chemiluminescent substrate, 34080, Thermo Scientific) and exposed to film (HyBlot ES, E3218, Denville Scientific).

468 human kinases = test: DiscoverX KINOMEscan profile at 10 μM; assay type: binding; conditions: panel of 468 human kinases
Experimental: as §1, §2

osteosarcoma U2OS cells = test: U2OS cell proliferation; assay type: cell-based, human
Excerpt: These effects are dependent on the compound selected, its concentration and the length of time cells are exposed to the compound.
Cells were obtained from the American Type Culture Collection. BORCS5-KO HeLa cells have been described previously. Osteosarcoma U2OS were routinely seeded in 6-well plates (0.5×10^5 cells/well) and cultured in Dulbecco's Modified Eagle's medium supplemented with L-Glutamine, 4.5 g/L Glucose, Sodium Pyruvate, Phenol Red, and either heat-inactivated or normal 10% fetal calf serum at 37° C. in 5% CO2. Approximately 15-19 hours later, the indicated compound was added in 1:1000 dilutions. Results were the same using either heat-inactivated or normal fetal calf serum. Melanoma A375, embryonic kidney 293T and human foreskin fibroblast Hs27 cells were cultured in the same medium, except that cells were seeded into 12-well plates at 10^3 cells/well.

melanoma A375 cells [3] = test: A375 cell proliferation (crystal violet plate assay); assay type: cell-based, human

Standing within the family for PIKFYVE binding (PIKFYVE): the most potent member | pKd (PIKFYVE; mean of two independent titration curves): 9.00 | Ill effects on mice (melanoma A375 cells [1]; mouse weight): no ill effects on mice | Number of kinases with binding affinities of 25% or greater (468 human kinases): ten
Structure (SMILES): C1=Nc2ccccc2/C1=C/NNc1nc(Nc2ccccc2)nc(N2CCOCC2)n1 [compound 1]
Time for lysosomal motility and size to revert after removal of the compound (U2OS cells; live cells expressing LAMP1-RFP): within one hour | Increase in size of LAMP1-labeled vacuoles (U2OS cells; within 20 hours, 1 μM): 9 fold | pEC50 (embryonic kidney cells): < 5.00 | Tumor xenograft formation by pretreated cells (melanoma A375 cells [1]; A375 cells pretreated 8 hours with 10 μM, subcutaneous): decidedly less efficient; also recorded: inhibited their ability to form a tumor | Delay of p62 accumulation relative to LC3-II [2]: about 3 hours | Sensitivity of inhibition of lysosome fission relative to accumulation of autophagosomes [2]: at least 5 fold | Concentration required for near maximum levels of LC3-II accumulation ([2]; 4 hrs): 0.1 to 0.5 µM | Accumulation of LC3-II ([2]; U2OS cells): comparable increase in LC3-II | Time to accumulation of LC3-II and p62 ([2]; U2OS cells): ≤ 4 h | Efficacy at inhibiting U2OS cell proliferation relative to HCQ or CQ (osteosarcoma U2OS cells): 21 times | Effect on U2OS cells (osteosarcoma U2OS cells; 0.1 μM): reduced the proliferation rate | Efficacy at arresting growth and proliferation relative to HCQ and CQ (osteosarcoma U2OS cells; cancer cells that depend on autophagy but are not addicted): 20 × | Inhibition of proliferation of melanoma A375 cells (melanoma A375 cells [3]): inhibited A375 cell proliferation | Efficacy at inhibiting A375 cell proliferation relative to HCQ or CQ (melanoma A375 cells [3]; plate assays): at least 100 times
